Measurements as given in BindingDB's records for doi:10.1021/jm970517u (Merck Research Laboratories, 1998).

test: Half maximal inhibition of binding of [125I]CCK-8 to Cholecystokinin type B receptor in guinea pig cerebral cortex.

| Structure (SMILES) | IC50 [nM] |
| --- | --- |
| O=C(Cc1ccc(C(F)(F)F)cc1C(F)(F)F)N[C@@H]1N=C(c2ccccc2)c2ccccc2N(CC(F)(F)F)C1=O [2-(2,4-Bis-trifluoromethyl-phenyl)-N-[(R)-2-oxo-5-phenyl-1-(2,2,2-trifluoro-ethyl)-2,3-dihydro-1H-benzo[e][1,4]diazepin-3-yl]-acetamide] | > 1000 |
| O=C(Cc1ccc(C(F)(F)F)cc1C(F)(F)F)N[C@H]1N=C(c2ccccc2)c2ccccc2N(CC(F)(F)F)C1=O [2-(2,4-Bis-trifluoromethyl-phenyl)-N-[(S)-2-oxo-5-phenyl-1-(2,2,2-trifluoro-ethyl)-2,3-dihydro-1H-benzo[e][1,4]diazepin-3-yl]-acetamide] | > 1000 |
| CC(C)N1C(=O)[C@H](NC(=O)Cc2cc(Cl)cc(Cl)c2)N=C(c2ccccc2)c2ccccc21 [2-(3,5-Dichloro-phenyl)-N-((R)-1-isopropyl-2-oxo-5-phenyl-2,3-dihydro-1H-benzo[e][1,4]diazepin-3-yl)-acetamide] | > 1000 |
| CN1C(=O)[C@H](NC(=O)C(N)Cc2ccccc2)N=C(c2ccccc2)c2ccccc21 (stereo partly drawn) [2-Amino-N-((R)-1-methyl-2-oxo-5-phenyl-2,3-dihydro-1H-benzo[e][1,4]diazepin-3-yl)-3-phenyl-propionamide] | > 1000 |
| CN1C(=O)[C@H](NC(=O)CCc2ccc(Cl)cc2Cl)N=C(c2ccccc2)c2ccccc21 [3-(2,4-Dichloro-phenyl)-N-((R)-1-methyl-2-oxo-5-phenyl-2,3-dihydro-1H-benzo[e][1,4]diazepin-3-yl)-propionamide] | > 1000 |
| CN(C)CCN1C(=O)C(NC(=O)CCc2ccc(Cl)cc2Cl)N=C(c2ccccc2)c2ccccc21 (centres undefined) [3-(2,4-Dichloro-phenyl)-N-[1-(2-dimethylamino-ethyl)-2-oxo-5-phenyl-2,3-dihydro-1H-benzo[e][1,4]diazepin-3-yl]-propionamide] | > 1000 |
| CC(=O)Nc1ccc(CCC(=O)N[C@@H]2N=C(c3ccccc3)c3ccccc3N(C)C2=O)cc1 [3-(4-Acetylamino-phenyl)-N-((R)-1-methyl-2-oxo-5-phenyl-2,3-dihydro-1H-benzo[e][1,4]diazepin-3-yl)-propionamide] | > 1000 |
| CN1C(=O)[C@H](NC(=O)CCc2ccc(N)cc2)N=C(c2ccccc2)c2ccccc21 [3-(4-Amino-phenyl)-N-((R)-1-methyl-2-oxo-5-phenyl-2,3-dihydro-1H-benzo[e][1,4]diazepin-3-yl)-propionamide] | > 1000 |
| CC(C)N1C(=O)[C@H](NC(=O)CCC2CCCCC2)N=C(c2ccccc2)c2ccccc21 [3-Cyclohexyl-N-((R)-1-isopropyl-2-oxo-5-phenyl-2,3-dihydro-1H-benzo[e][1,4]diazepin-3-yl)-propionamide] | > 1000 |
| CN1C(=O)[C@H](NC(=O)CCC2CCCCC2)N=C(c2ccccc2)c2ccccc21 [3-Cyclohexyl-N-((R)-1-methyl-2-oxo-5-phenyl-2,3-dihydro-1H-benzo[e][1,4]diazepin-3-yl)-propionamide] | > 1000 |
| CN1C(=O)[C@H](NC(=O)/C=C/c2ccc(Cl)cc2Cl)N=C(c2ccccc2)c2ccccc21 [(E)-3-(2,4-Dichloro-phenyl)-N-((R)-1-methyl-2-oxo-5-phenyl-2,3-dihydro-1H-benzo[e][1,4]diazepin-3-yl)-acrylamide] | > 1000 |
| CN1C(=O)[C@H](NC(=O)CCc2ccccc2)N=C(c2ccccc2)c2ccccc21 [(R)-N-(1-methyl-2-oxo-5-phenyl-2,3-dihydro-1H-benzo[e][1,4]diazepin-3-yl)-3-phenylpropanamide] | > 1000 |
| CN1C(=O)[C@H](NC(=O)Cc2ccccc2)N=C(c2ccccc2)c2ccccc21 [N-((R)-1-Methyl-2-oxo-5-phenyl-2,3-dihydro-1H-benzo[e][1,4]diazepin-3-yl)-2-phenyl-acetamide] | > 1000 |
| CN1C(=O)[C@H](NC(=O)c2ccccc2)N=C(c2ccccc2)c2ccccc21 [N-((R)-1-Methyl-2-oxo-5-phenyl-2,3-dihydro-1H-benzo[e][1,4]diazepin-3-yl)-benzamide] | > 1000 |
